From paper PMC9330593, “The Structural Flexibility of PR-10 Food Allergens” (International Journal of Molecular Sciences, 2022)

Target: T1, Ara h 8.0101 (Arachis hypogaea, UniProt Q6VT83)
T1 construct: recombinant, 15N-labelled; N-terminal glycine (initiator Met apparently absent)
T1 sequence (Q6VT83 2-157): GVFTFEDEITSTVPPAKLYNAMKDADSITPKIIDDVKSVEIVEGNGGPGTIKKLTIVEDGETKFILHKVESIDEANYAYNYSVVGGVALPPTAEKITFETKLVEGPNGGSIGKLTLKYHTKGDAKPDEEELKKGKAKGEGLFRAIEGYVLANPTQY
Assay: 1H-15N HSQC NMR titration
Type: binding

Kd: 760 ± 370 µM
SMILES: Oc1cc(O)c2c(c1)O[C@H](c1ccc(O)c(O)c1)[C@H](O)C2 [(-)-epicatechin]
